Source: patent US7351397B2, “Stabilization of radiopharmaceutical compositions using hydrophilic 6-hydroxy chromans” (CIS bio international, priority 2000, dated 2008)

Experiments:
Assay type in all cases: physicochemical
[1] = Radiolabelling yield (RCP) by reversed phase HPLC of 99mTc-labelled depreotide from lyophilized kits with Trolox; details: prepared from formulated kits
Procedure: Lyophilized kit vials were prepared containing depreotide, Trolox®, and other components as described in Table 3.
Some of the formulations were also radiolabelled in a heated preparation (heat in a boiling water bath for 10 minutes).

[2] = Radiolabelling yield (RCP) by reversed phase HPLC of 99mTc depreotide from lyophilized kits after accelerated temperature (40° C.) storage; details: lyophilized kits thermally stressed by accelerated temperature storage
Procedure: Lyophilized kits were prepared containing depreotide, Trolox®, and other components as described in Table 5. […] The kits were stored for one week at 40° C. Some kits were also stored at −10° C. as controls.

[3] = Radiolabelling yield (RCP) by reversed phase HPLC of 99mTc-labelled glycoprotein IIb/IIIa receptor-binding peptide with and without Trolox
Procedure: Lyophilized kit vials were prepared containing the peptide (50 μg), sodium glucoheptonate dihydrate (10 mg), stannous chloride dihydrate (50 μg), and edetate disodium dihydrate (100 μg). The formulation was adjusted to pH 7.4 prior to lyophilization.
The lyophilized kits were radiolabelled with ^99mTc in the presence and absence of Trolox®. To the Trolox® preparation was added 2 mg Trolox® in 100 μL ethanol and 100 μL saline. The ethanol was necessary to aid in the dissolution of the Trolox®. To the control preparation was added 100 μL ethanol and 100 μL saline to account for the additional saline or ethanol added with the Trolox.

[4] = Radiolabelling yield (RCP) by reversed phase HPLC of 99mTc-labelled monoamine, diamide, single thiol peptide chelator with and without Trolox
Procedure: Lyophilized kit “placebo” vials were prepared containing sodium glucoheptonate dihydrate, edetate disodium dihydrate, and stannous chloride dihydrate at the concentrations set forth in Table 1 (control formulation).
The peptide chelator was radiolabelled with ^99mTc in the presence and absence of Trolox®. The peptide chelator was dissolved in water at a concentration of 1 mg/mL, and 50 μg (50 μL) of the peptide was added to each of three placebo vials. Ethanol and Trolox® were added to the control and Trolox®, preparations as described in Example 11. In addition, 100 μL phosphate buffered saline (PBS) was added to each preparation.

[5] = Radiolabelling yield (RCP) by reversed phase HPLC of 99mTc-labelled bisamide bisthiol non-peptide chelator with and without Trolox
Text: The non-peptide chelator was radiolabelled with ^99mTc in the presence and absence of Trolox® using the placebo vial heated preparation procedure as described in Example 4.

[6] = Radiolabelling yield (RCP) by reversed phase HPLC of 99mTc-labelled depreotide from lyophilized kits with gentisic acid; details: when included in formulated kits
Procedure: Lyophilized kit vials were prepared containing depreotide, GA, and other components as described in Table 1. Formulations were adjusted to pH 7.4 or 8.5 (as noted) prior to lyophilization.

Row | stabilization of 99mTc-depreotide [2] | effect on radiolabelling yield and stability of 99mTc-depreotide [6] | Structure (SMILES) | effect on radiolabelling yield and stability of 99mTc depreotide [1] | effect on radiolabelling yield and stability of 99mTc-peptide [3] | effect on radiolabelling yield and stability of 99mTc-labelled peptide chelator [4] | effect on radiolabelling yield and stability of 99mTc-labelled non-peptide chelator [5]
1 | stabilizes |  | Cc1c(C)c2c(c(C)c1O)CCC(C)(C(=O)O)O2 (stereo not drawn) [Trolox®, 6-hydroxy-2,5,7,8-tetramethylchroman-2-carboxylic acid] | increases the radiolabelling yield and the stability | increases the radiolabelling yield and the stability | increases the radiolabelling yield and the stability | increases the radiolabelling yield and the stability
2 |  | decreases the radiochemical purity | O=C(O)c1cc(O)ccc1O [gentisic acid, Gentisic acid] |  |  |  | 
